Results from publication PMC10979476, “Molecular Deformation Is a Key Factor in Screening Aggregation Inhibitor for Intrinsically Disordered Protein Tau” (ACS Central Science, 2024).

What was measured:
[1] = tested on: SK-N-SH cells; test: CCK-8 cell survival assay; format: cell-based, human; conditions: 24 h; for cytotoxicity (in words): different concentrations, SK-N-SH cells
Procedure: After the above-mentioned systematic study of SAR at the molecular level, we wondered whether these inhibitory effects can be reproduced in the actual biological system, laying the foundation for the discovery of drug lead compounds. Therefore, the cytotoxicity and inhibitory effects of these synthetic compounds were evaluated by human neuroblastoma SK-N-SH cells. […] The cell viability of SK-N-SH was assessed using a cell counting kit-8 (CCK-8) assay.[48] It could be seen that the cell survival rate was still higher than 70% when the concentration of IPP1 reached 30 μM. […]
11. In Vitro Cellular Uptake and Cell Cytotoxicity.
Cell viability was assessed using Cell Counting Kit-8 (CCK-8) assay following the manufacturer’s instructions. SK-N-SH cells were seeded at a density of 2.0 × 10^4 cells per well in a 96-well plate and incubated for 24 h to adhere in a humidified chamber. Then, the cells were treated with various concentrations of compounds IPP1~IPP4 for 24 h. After that, the culture supernatants were removed, and 90 μL of medium and 10 μL of CCK-8 solution were then added. After further incubation for 3 h at 37 °C, the absorbance was measured at 450 nm using Microplate Reader 581 (SpectraMax iD3). Six replicates were used in each group.
12. In Vitro Evaluation of Inhibitory Effects of Inhibitor on Tau Aggregation In SK-N-SH Cell.
The effect of inhibitors on the formation of aggregate tau in SK-N-SH was tested by using the previously reported method15. First, SK-N-SH was grown on glass coverslips in 12-well plate at a […]

[2] = target: T1, tau hexapeptide VQIVYK (Homo sapiens, UniProt P10636); test: Heparin-induced aggregation of tau hexapeptide VQIVYK, fluorescence assay; format: biochemical; conditions: VQIVYK 15 μM, Figure S15
T1 construct: 306VQIVYK311(15 μM), ThS, VQIVYK+heparin
From the text: The carbonyl group in five-membered ring A in IPP1 forms a hydrogen bond with the amino group on glutamine (GLN307), valine (VAL309), and tyrosine (TYR310). The nitrogen atom in pyridine ring C in IPP1 also forms a hydrogen bond with the amino group of isoleucine (ILE308). Pyridine ring C on IPP1 forms π–π stacking with the benzene ring on TYR310. The five-membered ring A in IPP1 also forms hydrophobic contacts with glycine (GLY304), VAL306, and VAL309, which further increases the interaction between the molecule IPP1 and tau. […] Visually, IPP1 is like a molecular clip that firmly holds the key region, preventing the peptide from freely curling/folding and increasing the possibility to inhibit aggregation. […] As a result, the effective interactions between these compounds and tau peptide chains are much less than those of IPP1. […] To verify the docking results, we directly applied IPP1 to the aggregation of tau hexapeptide VQIVYK (Figure S15). […] The positive experimental results of IPP1 inhibition on tau hexapeptide further confirmed the reliability of our theoretical speculation on the target segment. […]
17. The fluorescence spectra of peptide fragments systems in the presence or absence of IPP1
Figure S15. The fluorescence spectra of peptide fragments systems containing […]

Row | SMILES | cytotoxicity (in words) [1] | aggregation of tau hexapeptide induced by heparin [2] | cell survival rate ([1]; 30 μM, tau-infected SK-N-SH cells)
1 | O=C1Nc2ccc(-c3ccc(N4CCCC4)nc3)cc2C1=O [IPP2, 5-(6-(pyrrolidin-1-yl)pyridin-3-yl)indoline-2,3-dione] | lowest cytotoxicity | – | –
2 | O=C1Nc2cccc(-c3ccc(N4CCCC4)nc3)c2C1=O [IPP1, 4-(6-(pyrrolidin-1-yl)pyridin-3-yl)indoline-2,3-dione] | relatively low cytotoxicity | significantly reduced the aggregation of tau hexapeptide | higher than 70%
3 | O=C1Nc2cc(-c3ccc(N4CCCC4)nc3)ccc2C1=O [IPP3, 6-(6-(pyrrolidin-1-yl)pyridin-3-yl)indoline-2,3-dione] | toxicity is not negligible | – | –
